In patent publication US6869589B1, “Cryptate compounds and methods for diagnosis and therapy” (Australian Nuclear Science & Technology Organization, priority 1999, dated 2005):

Assay: Biodistribution of ^64Cu complexes in balb/c mice
Settings: for Clearance of the complex (biodistribution, in words): if the ligand detaches from the antibody
Experimental: The biodistribution of the ^64Cu complexes of compounds (1), (3) and (4) (0.10 ml intravenous injection) were evaluated in balb/c mice (5 animals per time point) at 3, 5, 10, 15, 20 and 30 minute time intervals. Biodistribution studies were performed in duplicate.

With NC12CNCCNCC(N)(CNCCNC1)CNCCNC2.[64Cu+2] [^64Cu-labelled compound (1)] the “% injected dose per gram” value (BLADDER, 3 MIN) was 24.36 % INJECTED DOSE PER GRAM, the “% injected dose per gram” value (BLADDER, 5 MIN) was 31.12 % INJECTED DOSE PER GRAM and the “% injected dose per gram” value (BLADDER, 10 MIN) was 27.75 % INJECTED DOSE PER GRAM. The “% injected dose per gram” value (BLADDER, 15 MIN) was 15.17 % INJECTED DOSE PER GRAM, the “% injected dose per gram” value (BLADDER, 20 MIN) was 23.29 % INJECTED DOSE PER GRAM and the “% injected dose per gram” value (BLADDER, 30 MIN) was 122.93 % INJECTED DOSE PER GRAM. The “% injected dose per gram” value (BLOOD, 3 MIN) was 8.68 % INJECTED DOSE PER GRAM, the “% injected dose per gram” value (BLOOD, 5 MIN) was 6.32 % INJECTED DOSE PER GRAM and the “% injected dose per gram” value (BLOOD, 10 MIN) was 5.45 % INJECTED DOSE PER GRAM. For the same molecule, the “% injected dose per gram” value (BLOOD, 15 MIN) was 2.48 % INJECTED DOSE PER GRAM, the “% injected dose per gram” value (BLOOD, 20 MIN) was 2.63 % INJECTED DOSE PER GRAM and the “% injected dose per gram” value (BLOOD, 30 MIN) was 1.14 % INJECTED DOSE PER GRAM. For the same molecule, the “% injected dose per gram” value (BONE, 3 MIN) was 2.25 % INJECTED DOSE PER GRAM, the “% injected dose per gram” value (BONE, 5 MIN) was 1.87 % INJECTED DOSE PER GRAM and the “% injected dose per gram” value (BONE, 10 MIN) was 1.79 % INJECTED DOSE PER GRAM. The “% injected dose per gram” value (BONE, 15 MIN) was 1.23 % INJECTED DOSE PER GRAM, the “% injected dose per gram” value (BONE, 20 MIN) was 1.25 % INJECTED DOSE PER GRAM and the “% injected dose per gram” value (BONE, 30 MIN) was 0.78 % INJECTED DOSE PER GRAM. For the same molecule, the “% injected dose per gram” value (GIT, 3 MIN) was 2.75 % INJECTED DOSE PER GRAM, the “% injected dose per gram” value (GIT, 5 MIN) was 2.21 % INJECTED DOSE PER GRAM and the “% injected dose per gram” value (GIT, 10 MIN) was 1.85 % INJECTED DOSE PER GRAM. For the same molecule, the “% injected dose per gram” value (GIT, 15 MIN) was 1.11 % INJECTED DOSE PER GRAM, the “% injected dose per gram” value (GIT, 20 MIN) was 1.05 % INJECTED DOSE PER GRAM and the “% injected dose per gram” value (GIT, 30 MIN) was 1.16 % INJECTED DOSE PER GRAM. For the same molecule, the “% injected dose per gram” value (HEART, 3 MIN) was 3.11 % INJECTED DOSE PER GRAM, the “% injected dose per gram” value (HEART, 5 MIN) was 2.25 % INJECTED DOSE PER GRAM and the “% injected dose per gram” value (HEART, 10 MIN) was 2.27 % INJECTED DOSE PER GRAM. The “% injected dose per gram” value (HEART, 15 MIN) was 0.89 % INJECTED DOSE PER GRAM, the “% injected dose per gram” value (HEART, 20 MIN) was 1.23 % INJECTED DOSE PER GRAM and the “% injected dose per gram” value (HEART, 30 MIN) was 0.40 % INJECTED DOSE PER GRAM. For the same molecule, the “% injected dose per gram” value (KIDNEY, 3 MIN) was 23.18 % INJECTED DOSE PER GRAM, the “% injected dose per gram” value (KIDNEY, 5 MIN) was 11.50 % INJECTED DOSE PER GRAM and the “% injected dose per gram” value (KIDNEY, 10 MIN) was 12.80 % INJECTED DOSE PER GRAM. For the same molecule, the “% injected dose per gram” value (KIDNEY, 15 MIN) was 6.77 % INJECTED DOSE PER GRAM, the “% injected dose per gram” value (KIDNEY, 20 MIN) was 7.77 % INJECTED DOSE PER GRAM and the “% injected dose per gram” value (KIDNEY, 30 MIN) was 4.95 % INJECTED DOSE PER GRAM. The “% injected dose per gram” value (LIVER, 3 MIN) was 2.29 % INJECTED DOSE PER GRAM, the “% injected dose per gram” value (LIVER, 5 MIN) was 1.50 % INJECTED DOSE PER GRAM and the “% injected dose per gram” value (LIVER, 10 MIN) was 1.42 % INJECTED DOSE PER GRAM. For the same molecule, the “% injected dose per gram” value (LIVER, 15 MIN) was 0.82 % INJECTED DOSE PER GRAM, the “% injected dose per gram” value (LIVER, 20 MIN) was 0.69 % INJECTED DOSE PER GRAM and the “% injected dose per gram” value (LIVER, 30 MIN) was 0.50 % INJECTED DOSE PER GRAM. For the same molecule, the “% injected dose per gram” value (LUNGS, 3 MIN) was 6.51 % INJECTED DOSE PER GRAM, the “% injected dose per gram” value (LUNGS, 5 MIN) was 4.45 % INJECTED DOSE PER GRAM and the “% injected dose per gram” value (LUNGS, 10 MIN) was 3.91 % INJECTED DOSE PER GRAM. The “% injected dose per gram” value (LUNGS, 15 MIN) was 2.06 % INJECTED DOSE PER GRAM, the “% injected dose per gram” value (LUNGS, 20 MIN) was 2.73 % INJECTED DOSE PER GRAM and the “% injected dose per gram” value (LUNGS, 30 MIN) was 0.85 % INJECTED DOSE PER GRAM. The “% injected dose per gram” value (MUSCLE, 3 MIN) was 1.81 % INJECTED DOSE PER GRAM, the “% injected dose per gram” value (MUSCLE, 5 MIN) was 1.81 % INJECTED DOSE PER GRAM and the “% injected dose per gram” value (MUSCLE, 10 MIN) was 2.39 % INJECTED DOSE PER GRAM. For the same molecule, the “% injected dose per gram” value (MUSCLE, 15 MIN) was 2.28 % INJECTED DOSE PER GRAM, the “% injected dose per gram” value (MUSCLE, 20 MIN) was 1.17 % INJECTED DOSE PER GRAM and the “% injected dose per gram” value (MUSCLE, 30 MIN) was 1.33 % INJECTED DOSE PER GRAM. The “% injected dose per gram” value (SKIN, 3 MIN) was 5.82 % INJECTED DOSE PER GRAM, the “% injected dose per gram” value (SKIN, 5 MIN) was 5.59 % INJECTED DOSE PER GRAM and the “% injected dose per gram” value (SKIN, 10 MIN) was 5.48 % INJECTED DOSE PER GRAM. For the same molecule, the “% injected dose per gram” value (SKIN, 15 MIN) was 2.61 % INJECTED DOSE PER GRAM, the “% injected dose per gram” value (SKIN, 20 MIN) was 2.96 % INJECTED DOSE PER GRAM and the “% injected dose per gram” value (SKIN, 30 MIN) was 1.63 % INJECTED DOSE PER GRAM. The “% injected dose per gram” value (SPLEEN, 3 MIN) was 2.09 % INJECTED DOSE PER GRAM, the “% injected dose per gram” value (SPLEEN, 5 MIN) was 1.48 % INJECTED DOSE PER GRAM and the “% injected dose per gram” value (SPLEEN, 10 MIN) was 1.54 % INJECTED DOSE PER GRAM. For the same molecule, the “% injected dose per gram” value (SPLEEN, 15 MIN) was 1.44 % INJECTED DOSE PER GRAM, the “% injected dose per gram” value (SPLEEN, 20 MIN) was 0.69 % INJECTED DOSE PER GRAM and the “% injected dose per gram” value (SPLEEN, 30 MIN) was 0.52 % INJECTED DOSE PER GRAM. For the same molecule, the “% injected dose per gram” value (STOMACH, 3 MIN) was 3.50 % INJECTED DOSE PER GRAM, the “% injected dose per gram” value (STOMACH, 5 MIN) was 2.73 % INJECTED DOSE PER GRAM and the “% injected dose per gram” value (STOMACH, 10 MIN) was 2.08 % INJECTED DOSE PER GRAM. The “% injected dose per gram” value (STOMACH, 15 MIN) was 1.50 % INJECTED DOSE PER GRAM, the “% injected dose per gram” value (STOMACH, 20 MIN) was 1.16 % INJECTED DOSE PER GRAM and the “% injected dose per gram” value (STOMACH, 30 MIN) was 0.74 % INJECTED DOSE PER GRAM.

In the case of NC12C[N]3CC[N]4CC5(NCc6ccc([N+](=O)[O-])cc6)C[N]6CC[N](C1)[Cu]3461[N](CC[N]1C5)C2 [compound (2)], the “Clearance of the complex (biodistribution, in words)” value is reported as “clear rapidly from the system”.

With NC12CNCCNCC(N)(CNCCNC1)CNCCNC2 [compound (1)] the “Clearance of the complex (biodistribution, in words)” value was “clear rapidly from the system”.
